Assay results: US10912815B2, “Inhibitors of mitochondrial fission and methods of use thereof” (The Board of Trustees of the Leland Stanford Junior …, priority 2011, dated 2021)
Residues, ends and D or L forms follow the SMILES beside them.

Experiments:
Recombinant protein Drp1 = Recombinant protein Drp1 (Homo sapiens, UniProt O00429); test: In vitro GTPase assay, recombinant Drp1; format: biochemical; details: for inhibition in the GTPase activity of recombinant Drp1: recombinant Drp1 25 ng, 30 min incubation with peptide, FIG. 2A
Description: (§1) First, mitochondrial fission inhibitor constructs were tested to determine what, if any, effects each peptide had on enzyme (GTPase) activity. Recombinant protein Drp1, Mfn1, OPA1 or dynamin-1 (25 ng) was incubated with the indicated modulator peptides for 30 min. GTPase activity was assayed in vitro using a GTPase assay kit (Innova Biosciences, Littleton, USA, or Novus Biologicals, Littleton, Colo.) according to manufacturer's instructions.

Mfn1 = molecular target: T1, Mfn1 (Homo sapiens, UniProt Q8IWA4); test: In vitro GTPase assay, recombinant Mfn1; format: biochemical; details: p<0.05, n=3, FIG. 2F
T1 sequence (Q8IWA4 1-741): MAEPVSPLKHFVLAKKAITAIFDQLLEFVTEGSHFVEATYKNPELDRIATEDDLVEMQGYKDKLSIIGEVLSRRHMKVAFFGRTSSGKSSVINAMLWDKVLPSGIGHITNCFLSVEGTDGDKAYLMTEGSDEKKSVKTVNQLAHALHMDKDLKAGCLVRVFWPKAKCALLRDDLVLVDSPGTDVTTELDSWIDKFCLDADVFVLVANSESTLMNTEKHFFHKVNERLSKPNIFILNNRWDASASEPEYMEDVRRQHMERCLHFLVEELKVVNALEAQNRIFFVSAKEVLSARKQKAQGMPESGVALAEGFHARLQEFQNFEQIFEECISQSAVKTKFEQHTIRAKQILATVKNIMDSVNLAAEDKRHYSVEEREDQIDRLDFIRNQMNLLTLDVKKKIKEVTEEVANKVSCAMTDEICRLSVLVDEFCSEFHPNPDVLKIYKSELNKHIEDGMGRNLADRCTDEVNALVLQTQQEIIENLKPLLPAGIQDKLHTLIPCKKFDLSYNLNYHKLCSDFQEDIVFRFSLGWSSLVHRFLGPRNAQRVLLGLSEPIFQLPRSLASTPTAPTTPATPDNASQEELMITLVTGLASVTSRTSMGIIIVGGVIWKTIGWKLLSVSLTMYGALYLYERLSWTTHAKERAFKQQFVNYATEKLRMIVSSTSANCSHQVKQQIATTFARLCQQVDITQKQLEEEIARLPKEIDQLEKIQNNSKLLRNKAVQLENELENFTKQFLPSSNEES
Description: as §1

OPA1 = molecular target: T2, OPA1 (Homo sapiens, UniProt O60313); test: In vitro GTPase assay, recombinant OPA1; format: biochemical; details: p<0.05, n=3, FIG. 2F
T2 sequence (O60313 88-960): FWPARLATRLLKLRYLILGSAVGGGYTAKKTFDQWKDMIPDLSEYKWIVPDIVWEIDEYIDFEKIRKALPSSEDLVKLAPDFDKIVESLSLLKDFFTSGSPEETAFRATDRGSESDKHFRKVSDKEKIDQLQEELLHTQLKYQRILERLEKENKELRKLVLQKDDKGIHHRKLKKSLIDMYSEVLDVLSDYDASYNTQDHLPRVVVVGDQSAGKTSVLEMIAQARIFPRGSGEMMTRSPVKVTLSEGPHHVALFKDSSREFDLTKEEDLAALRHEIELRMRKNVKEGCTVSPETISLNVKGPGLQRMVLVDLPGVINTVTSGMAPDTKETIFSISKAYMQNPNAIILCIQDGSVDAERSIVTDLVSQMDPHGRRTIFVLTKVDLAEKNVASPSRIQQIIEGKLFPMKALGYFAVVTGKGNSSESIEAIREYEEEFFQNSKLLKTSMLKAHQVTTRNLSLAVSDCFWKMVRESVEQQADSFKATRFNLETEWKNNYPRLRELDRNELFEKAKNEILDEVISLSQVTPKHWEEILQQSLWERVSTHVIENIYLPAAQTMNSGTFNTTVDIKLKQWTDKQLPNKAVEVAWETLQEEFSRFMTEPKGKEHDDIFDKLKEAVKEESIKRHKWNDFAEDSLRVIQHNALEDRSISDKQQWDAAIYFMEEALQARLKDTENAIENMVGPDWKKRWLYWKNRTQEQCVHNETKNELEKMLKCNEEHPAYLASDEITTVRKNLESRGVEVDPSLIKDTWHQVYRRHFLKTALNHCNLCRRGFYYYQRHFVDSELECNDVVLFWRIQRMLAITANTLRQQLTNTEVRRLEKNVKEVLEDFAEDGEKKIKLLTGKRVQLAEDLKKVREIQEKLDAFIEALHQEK
Description: as §1

SH-SY5Y cells = details: peptides 1 μM each, MPP+ 2 mM for 24 hours, FIG. 9E
Description: Cell viability of stressed SH-SY5Y cells was measured by MTT assay.
In another experiment, Human SH-SY5Y cells were treated with Drp1 P108, P109 or P110 or Fis1 P111, P112 or P113 (0.5 μM) for 15 min followed by treatment with MPP+(1 mM for 24 hrs). The cell viability was then determined by MTT test.

[1] = tested on: isolated mouse liver mitochondria with Drp1 recombinant protein; test: Membrane potential of isolated mouse liver mitochondria incubated with Drp1 (TMRM); format: biochemical; details: P110 1 μM, NAC 2.5 mM, FIG. 6D bottom
Description: (§2) Mitochondrial membrane potential was also determined using TMRM (tetramethylrhodamine methylester). Fifty μg of mitochondria were incubated with recombinant Drp1 (50 ng) followed by incubation with TMRM (0.5 μM) in the presence or absence of P110 (1 μM) or NAC (2.5 mM). Fluoresence detection was performed using black 96-well plates in a fluorescence microplate reader at 560 nm excitation and 690 nm emission and potential was assessed by quenching of the fluorescent signal. The data are presented as mean±S.E. of percentage relative to control mitochondria from three independent experiments (FIG. 6B, #, p<0.05 vs. control cells; *, p<0.05; **, P<0.01 vs. MPP+- or CCCP-treated cells). Isolated mouse liver mitochondria (50 μg) were incubated with Drp1 recombinant protein (50 ng) in the presence or absence of P110 (1 μM). A kinetic change of mitochondrial superoxide production was determined by using MITOSOX™ (red mitochondrial superoxide indicator). The data are presented as mean±S.E. of percentage relative to the value at basal level from three independent experiments (FIG. 6C, #, p<0.05 vs. control mitochondria; *, p<0.05 vs. mitochondria with the addition of Drp1). Mitochondrial membrane potential of isolated mouse liver mitochondria was determined by TMRM, as described above, in the indicated groups. NAC (2.5 mM) was used as a positive control (FIG. 6D). Protein levels of cytochrome c in the mitochondria were determined by western blot analysis with anti-cytochrome c antibodies in the indicated groups (insert, FIG. 6D). Total ROS production was determined by staining SH-SY5Y cells with CM2HDCFA (1 μM […] at 37° C.) in the indicated groups. The data are presented as mean±S.E. of percentage relative to control group from three independent experiments (FIG. 6E, *, p<0.05 vs. either MPP+ or CCCP treated-group; #, p<0.05 vs. control group).
The mitochondrial membrane potential of isolated mouse liver mitochondria was then measured in the presence or absence of P110.

Dnm1 (yeast Drp1) = molecular target: T3, Dnm1 (yeast Drp1) (Saccharomyces cerevisiae, UniProt P54861); details: yeast and mammals, by blocking Dnm1 polymerization; cited from earlier work
T3 sequence (P54861 1-757): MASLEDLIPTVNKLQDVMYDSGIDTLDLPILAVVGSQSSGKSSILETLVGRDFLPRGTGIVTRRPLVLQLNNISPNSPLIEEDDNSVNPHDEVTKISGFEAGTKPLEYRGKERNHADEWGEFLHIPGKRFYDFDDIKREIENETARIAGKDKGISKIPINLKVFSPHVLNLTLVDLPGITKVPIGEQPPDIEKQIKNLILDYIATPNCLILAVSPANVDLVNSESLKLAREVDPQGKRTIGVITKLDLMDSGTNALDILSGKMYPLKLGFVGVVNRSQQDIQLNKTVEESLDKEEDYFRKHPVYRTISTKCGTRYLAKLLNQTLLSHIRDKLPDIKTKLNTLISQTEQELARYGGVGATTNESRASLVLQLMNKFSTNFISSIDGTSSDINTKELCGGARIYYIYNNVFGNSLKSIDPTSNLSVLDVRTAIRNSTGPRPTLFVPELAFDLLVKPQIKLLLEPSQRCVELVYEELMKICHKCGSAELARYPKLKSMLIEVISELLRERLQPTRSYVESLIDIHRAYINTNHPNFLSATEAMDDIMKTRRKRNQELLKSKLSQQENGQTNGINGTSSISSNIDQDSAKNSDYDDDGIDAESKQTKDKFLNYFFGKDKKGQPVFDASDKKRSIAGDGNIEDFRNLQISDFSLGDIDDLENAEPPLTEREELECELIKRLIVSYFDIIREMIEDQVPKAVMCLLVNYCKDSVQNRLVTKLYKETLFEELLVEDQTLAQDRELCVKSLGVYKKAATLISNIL

[2] = tested on: isolated mouse liver mitochondria with Drp1 recombinant protein; test: Superoxide production of isolated mouse liver mitochondria after addition of recombinant Drp1; format: biochemical; details: isolated mouse liver mitochondria 50 μg, Drp1 50 ng, P110 1 μM, p<0.05, n=3, FIG. 6C
Description: as §2, with “The data are presented as mean±S.E. of percentage relative to the value at basal level from three independent experiments (FIG. 6C, #, p<0.05 vs. control mitochondria; *, p<0.05 vs. mitochondria with the addition of Drp1).” left out, “NAC (2.5 mM) was used as a positive control (FIG. 6D).” left out, “The data are presented as mean±S.E. of percentage relative to control group from three independent experiments (FIG. 6E, *, p<0.05 vs. either MPP+ or CCCP treated-group; #, p<0.05 vs. control group).” left out

Recombinant protein Drp1, sequence (O00429 1-710 isoform O00429-3): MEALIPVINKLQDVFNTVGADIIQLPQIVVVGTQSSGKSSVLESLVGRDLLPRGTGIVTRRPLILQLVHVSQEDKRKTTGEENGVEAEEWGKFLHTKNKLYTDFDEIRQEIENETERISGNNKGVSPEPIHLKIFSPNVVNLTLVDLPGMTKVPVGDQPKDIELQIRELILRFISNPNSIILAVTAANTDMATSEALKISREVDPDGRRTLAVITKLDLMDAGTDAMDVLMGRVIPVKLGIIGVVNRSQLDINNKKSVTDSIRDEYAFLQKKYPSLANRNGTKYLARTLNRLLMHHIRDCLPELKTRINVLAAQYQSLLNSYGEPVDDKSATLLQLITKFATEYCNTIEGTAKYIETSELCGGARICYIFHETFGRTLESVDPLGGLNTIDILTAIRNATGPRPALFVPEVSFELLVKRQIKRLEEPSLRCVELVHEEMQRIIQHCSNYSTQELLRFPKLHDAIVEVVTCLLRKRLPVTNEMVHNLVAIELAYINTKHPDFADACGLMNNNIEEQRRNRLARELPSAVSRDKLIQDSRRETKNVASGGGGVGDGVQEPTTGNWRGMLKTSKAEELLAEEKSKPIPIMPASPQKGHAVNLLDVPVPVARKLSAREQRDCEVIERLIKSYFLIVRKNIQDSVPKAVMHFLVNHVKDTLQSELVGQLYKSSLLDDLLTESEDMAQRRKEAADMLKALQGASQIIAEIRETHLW

Compound	inhibition in the GTPase activity of recombinant Drp1 (Recombinant protein Drp1)	mitochondrial membrane potential (MMP) of isolated mitochondria after Drp1 addition [1]	also measured
CC(C)C[C@H](NC(=O)[C@H](CCCCN)NC(=O)CNC(=O)CNC(=O)[C@H](Cc1ccc(O)cc1)NC(=O)CNC(=O)[C@H](CCCNC(=N)N)NC(=O)[C@H](CCCCN)NC(=O)[C@H](CCCCN)NC(=O)[C@H](CCCNC(=N)N)NC(=O)[C@H](CCCNC(=N)N)NC(=O)[C@H](CCC(N)=O)NC(=O)[C@H](CCCNC(=N)N)NC(=O)[C@H](CCCNC(=N)N)NC(=O)[C@@H](N)CCCNC(=N)N)C(=O)N[C@@H](CO)C(=O)N[C@@H](C)C(=O)N[C@@H](CCCNC(=N)N)C(=O)N[C@@H](CCC(=O)O)C(=O)N[C@@H](CCC(N)=O)C(=O)N[C@@H](CCCNC(=N)N)C(=O)N[C@@H](CC(=O)O)C(N)=O [P109] (H-RRRQRRKKRGYGGKLSAREQRD-NH2)	40%		GTPase activity of MFN1 (increased) (Mfn1): 229%±10; GTPase activity of OPA1 (increased) (OPA1): 177%±13
RRRQRRKKRGYGGELLPKG (RRRQRRKKRGYGGELLPKGS) [P113, TAT47-57 carrier, GG linker, Fis1 region 113 peptide]	no significant effect		cell viability (MTT) (SH-SY5Y cells): no significant effect
N=C(N)NCCC[C@H](NC(=O)[C@H](CCCCN)NC(=O)[C@H](CCCCN)NC(=O)[C@H](CCCNC(=N)N)NC(=O)[C@H](CCCNC(=N)N)NC(=O)[C@H](CCC(N)=O)NC(=O)[C@H](CCCNC(=N)N)NC(=O)[C@H](CCCNC(=N)N)NC(=O)[C@@H](N)CCCNC(=N)N)C(=O)NCC(=O)N[C@@H](Cc1ccc(O)cc1)C(=O)NCC(=O)NCC(=O)N[C@@H](CCCCN)C(=O)NCC(=O)N[C@@H](CO)C(=O)N[C@@H](CCCCN)C(=O)N[C@@H](CCC(=O)O)C(=O)N[C@@H](CCC(=O)O)C(=O)N[C@@H](CCC(N)=O)C(=O)N[C@@H](CCCNC(=N)N)C(=O)N[C@@H](CC(=O)O)C(N)=O [P112] (H-RRRQRRKKRGYGGKGSKEEQRD-NH2)	no significant effect		specifically inhibited Drp1 GTPase activity (Recombinant protein Drp1; in vitro GTPase assay, n=3, first statement of b271): 50%
CC(=O)N[C@@H](CS)C(=O)O [NAC, N-Acetyl cysteine, reference compound]		prevented the dissipated MMP	
COc1cc(-n2c(=S)[nH]c3ccccc3c2=O)c(Cl)cc1Cl [Mdivi-1]			mitochondrial division (Dnm1 (yeast Drp1)): inhibits mitochondrial division
Drp1 K38A: dominant negative mutant of Drp1, which inhibits Drp1 GTPase activity and fission activity; positive control	~70%	similar	Drp1-induced ROS (superoxide) elevation in the mitochondria [2]: abolished
